ChEMBL document CHEMBL1201862, “PubChem BioAssay data set” (2004)
Each block holds one molecule with its values, some of them ahead of it. The source made the active and inactive calls.

What was measured:
[1] = tested on: HEK293; experiment: Cytotoxicity assay in HEK293 cells. [Related pubchem assays (depositor defined):AID1266, AID1269, AID1270, AID1271, AID1280, AID1281, AID1282, AID1283, AID1287, AID1289, AID1290, AID1291, AID1292, AID1293, AID1294, AID1295, AID1299, AID1302, AID1364, AID1365, AID1366, AID1367, AID1369, AID1370, AID1371, AID1372, AID1373, AID1374, AID1375, AID1384 …; type: functional, cell-based; conditions: Homo sapiens
[2] = tested on: HEK293; experiment: PMA/Ionomycin induced NF-kB luciferase assay in 293- NF-kB-Luc stable cells. [Related pubchem assays: 1299, 1270, 1295, 1375, 1287, 1281, 1293, 1291, 1289, 1280, 465, 1364, 1282, 1372, 1365, 1370, 1367, 1366, 1269, 1373, 1292, 1290, 1302, 1371, 1283, 1271, 1294, 1374, 1368, 1369 ]; type: functional, cell-based; conditions: Homo sapiens
[3] = molecular target: Luciferin 4-monooxygenase (Photinus pyralis, UniProt P08659); experiment: In vitro luciferase assay using purified luciferase. [Related pubchem assays: 1299, 1270, 1295, 1375, 1287, 1281, 1293, 1291, 1289, 1280, 465, 1364, 1282, 1372, 1365, 1370, 1367, 1366, 1266, 1373, 1292, 1290, 1302, 1371, 1283, 1271, 1294, 1374, 1368, 1369 ]
[4] = tested on: Staphylococcus aureus; experiment: Inhibitors of Bacterial Quorum Sensing Structure Activity Relationship (SAR) Analysis: Dose Response Assay. [Related pubchem assays: 700, 527 ]; type: functional, organism-based
[5] = molecular target: Melanin-concentrating hormone receptor 1 (Homo sapiens, UniProt Q99705); experiment: Late-stage fluorescence-based counterscreen for antagonists of the G-protein coupled receptor 7 (GPR7): cell-based dose response assay to identify antagonists of the melanin-concentrating hormone receptor 1 (MCHR1). [Related pubchem assays (depositor defined):AID1861, AID1880, AID1952, AID2148, AID2251, AID2257, AID485339]; type: functional;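 further: stimulated with 30 nM MCH peptide agonist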
[6] = molecular target: T1, Neuropeptides B/W receptor type 1 (Homo sapiens, UniProt P48145); experiment: human NPBW1 receptor blockade, IC50 – cell-based, fluorescence, dose response, late-stage follow-up (AID 463251); type: functional
T1 sequence (P48145 whole entry): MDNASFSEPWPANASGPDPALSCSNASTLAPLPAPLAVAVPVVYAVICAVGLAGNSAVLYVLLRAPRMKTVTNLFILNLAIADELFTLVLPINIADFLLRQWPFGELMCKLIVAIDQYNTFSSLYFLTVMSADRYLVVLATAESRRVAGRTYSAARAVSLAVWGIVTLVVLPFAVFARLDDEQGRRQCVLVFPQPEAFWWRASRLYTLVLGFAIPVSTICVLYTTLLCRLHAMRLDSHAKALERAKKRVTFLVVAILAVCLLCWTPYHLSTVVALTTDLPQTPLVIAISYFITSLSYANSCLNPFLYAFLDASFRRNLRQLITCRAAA

[7] = molecular target: Heat shock cognate 71 kDa protein (Homo sapiens, UniProt P11142); experiment: In Vitro Hsc70 Dose Response Fluorescence Polarization Assay. [Related pubchem assays: 1072 ]
[8] = molecular target: Heat shock 70 kDa protein 1A (Homo sapiens, UniProt P0DMV8); experiment: inhibition of Hsp70 binding activity – biochemical, fluorescence polarization, SAR follow-up (AID 1072)
[9] = molecular target: T2, Tyrosine-protein phosphatase non-receptor type 7 (Homo sapiens, UniProt P35236); type: functional
T2 sequence (P35236 whole entry): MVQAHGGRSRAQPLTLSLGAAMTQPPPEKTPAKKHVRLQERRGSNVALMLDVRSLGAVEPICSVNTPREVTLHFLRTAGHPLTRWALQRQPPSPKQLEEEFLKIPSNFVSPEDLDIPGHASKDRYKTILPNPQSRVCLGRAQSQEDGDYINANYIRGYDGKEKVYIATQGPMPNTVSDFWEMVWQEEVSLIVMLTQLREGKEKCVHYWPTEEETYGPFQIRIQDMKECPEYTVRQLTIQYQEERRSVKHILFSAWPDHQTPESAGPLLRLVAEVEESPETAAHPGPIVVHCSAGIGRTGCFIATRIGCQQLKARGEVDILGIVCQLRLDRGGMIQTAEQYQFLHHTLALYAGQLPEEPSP

[10] = molecular target: T3, Dual specificity protein phosphatase 6 (Rattus norvegicus, UniProt Q64346)
T3 sequence (Q64346 whole entry): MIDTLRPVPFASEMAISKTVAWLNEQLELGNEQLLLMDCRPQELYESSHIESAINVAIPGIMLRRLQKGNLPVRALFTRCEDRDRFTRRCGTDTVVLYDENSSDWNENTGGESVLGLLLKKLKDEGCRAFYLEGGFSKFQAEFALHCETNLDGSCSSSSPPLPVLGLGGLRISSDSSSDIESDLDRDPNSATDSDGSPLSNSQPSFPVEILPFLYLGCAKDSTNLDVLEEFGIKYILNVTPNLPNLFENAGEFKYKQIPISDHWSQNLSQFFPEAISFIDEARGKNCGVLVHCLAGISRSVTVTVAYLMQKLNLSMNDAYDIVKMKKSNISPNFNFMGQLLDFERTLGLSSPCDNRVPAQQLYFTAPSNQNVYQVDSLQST

[11] = molecular target: T3, Dual specificity protein phosphatase 6; type: functional
[12] = molecular target: Glyceraldehyde-3-phosphate dehydrogenase (Homo sapiens, UniProt P04406)
[13] = molecular target: Caspase-7 (Homo sapiens, UniProt P55210); experiment: potency of procaspase-7 enzyme activation – biochemical, absorbance, human, dual procaspase-3/-7 activator project, dose response (AID 504330)
[14] = molecular target: T4, Caspase-3 (Homo sapiens, UniProt P42574); experiment: activators of human procaspase-3 D3A mutant – biochemical, absorbance, PC-3 D3A mutant, counter-screen for dual procaspase-3/7 activator project, dose response (AID 504328)
T4 sequence (P42574 whole entry): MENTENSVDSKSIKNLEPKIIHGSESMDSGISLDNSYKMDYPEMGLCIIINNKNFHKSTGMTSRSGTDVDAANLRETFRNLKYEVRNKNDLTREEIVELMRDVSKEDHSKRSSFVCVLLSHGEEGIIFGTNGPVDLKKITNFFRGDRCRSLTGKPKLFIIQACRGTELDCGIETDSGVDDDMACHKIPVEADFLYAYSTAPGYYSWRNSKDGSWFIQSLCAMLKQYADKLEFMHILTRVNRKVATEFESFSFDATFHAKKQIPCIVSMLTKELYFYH

Chain of Heat shock cognate 71 kDa protein (P11142 whole entry): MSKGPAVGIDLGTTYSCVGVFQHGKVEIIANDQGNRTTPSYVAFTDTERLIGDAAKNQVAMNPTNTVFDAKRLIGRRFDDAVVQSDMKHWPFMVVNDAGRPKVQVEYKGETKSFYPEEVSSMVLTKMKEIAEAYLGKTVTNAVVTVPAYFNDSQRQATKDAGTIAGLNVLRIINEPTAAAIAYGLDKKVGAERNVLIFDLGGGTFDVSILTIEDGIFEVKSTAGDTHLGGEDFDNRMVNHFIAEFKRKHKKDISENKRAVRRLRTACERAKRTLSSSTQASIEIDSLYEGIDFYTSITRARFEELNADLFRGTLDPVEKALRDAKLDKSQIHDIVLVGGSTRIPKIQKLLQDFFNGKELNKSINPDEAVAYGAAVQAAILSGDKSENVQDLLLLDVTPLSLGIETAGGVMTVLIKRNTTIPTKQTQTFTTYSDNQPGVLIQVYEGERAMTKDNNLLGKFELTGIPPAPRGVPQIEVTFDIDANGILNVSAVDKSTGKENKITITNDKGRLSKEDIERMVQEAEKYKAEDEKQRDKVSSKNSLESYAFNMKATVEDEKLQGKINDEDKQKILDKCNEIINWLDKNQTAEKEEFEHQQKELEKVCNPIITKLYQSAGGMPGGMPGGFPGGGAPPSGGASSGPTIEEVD
Chain of Luciferin 4-monooxygenase (P08659 whole entry): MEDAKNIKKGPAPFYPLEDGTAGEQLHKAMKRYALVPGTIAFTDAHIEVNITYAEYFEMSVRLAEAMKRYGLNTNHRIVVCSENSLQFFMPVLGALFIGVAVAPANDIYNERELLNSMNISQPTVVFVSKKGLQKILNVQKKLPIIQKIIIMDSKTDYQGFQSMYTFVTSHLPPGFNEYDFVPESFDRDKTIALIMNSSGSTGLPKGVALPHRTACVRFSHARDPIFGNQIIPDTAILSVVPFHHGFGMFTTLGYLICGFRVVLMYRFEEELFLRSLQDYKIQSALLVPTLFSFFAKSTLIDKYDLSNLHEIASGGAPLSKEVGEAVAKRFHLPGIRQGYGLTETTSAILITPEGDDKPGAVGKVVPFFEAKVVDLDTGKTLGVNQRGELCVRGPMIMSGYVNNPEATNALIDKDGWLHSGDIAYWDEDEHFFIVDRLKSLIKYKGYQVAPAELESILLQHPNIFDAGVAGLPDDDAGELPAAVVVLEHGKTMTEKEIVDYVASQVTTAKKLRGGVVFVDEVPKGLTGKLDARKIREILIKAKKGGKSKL
Chain of Heat shock 70 kDa protein 1A (P0DMV8 whole entry): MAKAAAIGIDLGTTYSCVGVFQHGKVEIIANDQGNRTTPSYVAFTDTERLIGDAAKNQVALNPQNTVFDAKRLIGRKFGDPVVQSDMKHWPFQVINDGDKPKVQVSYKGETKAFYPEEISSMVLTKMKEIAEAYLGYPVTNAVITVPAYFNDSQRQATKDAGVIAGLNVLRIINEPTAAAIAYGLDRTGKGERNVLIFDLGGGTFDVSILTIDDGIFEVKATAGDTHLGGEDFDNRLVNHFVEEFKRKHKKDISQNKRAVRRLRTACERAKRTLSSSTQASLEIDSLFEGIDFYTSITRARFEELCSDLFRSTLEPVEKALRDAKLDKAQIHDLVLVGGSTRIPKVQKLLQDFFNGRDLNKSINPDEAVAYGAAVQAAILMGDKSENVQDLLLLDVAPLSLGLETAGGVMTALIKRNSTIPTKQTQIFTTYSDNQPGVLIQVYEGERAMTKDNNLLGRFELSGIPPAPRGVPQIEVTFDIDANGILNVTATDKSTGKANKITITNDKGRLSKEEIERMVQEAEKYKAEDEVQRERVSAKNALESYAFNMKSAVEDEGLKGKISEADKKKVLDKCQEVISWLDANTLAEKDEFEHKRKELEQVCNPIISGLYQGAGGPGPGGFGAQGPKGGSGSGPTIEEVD
Chain of Melanin-concentrating hormone receptor 1 (Q99705 whole entry): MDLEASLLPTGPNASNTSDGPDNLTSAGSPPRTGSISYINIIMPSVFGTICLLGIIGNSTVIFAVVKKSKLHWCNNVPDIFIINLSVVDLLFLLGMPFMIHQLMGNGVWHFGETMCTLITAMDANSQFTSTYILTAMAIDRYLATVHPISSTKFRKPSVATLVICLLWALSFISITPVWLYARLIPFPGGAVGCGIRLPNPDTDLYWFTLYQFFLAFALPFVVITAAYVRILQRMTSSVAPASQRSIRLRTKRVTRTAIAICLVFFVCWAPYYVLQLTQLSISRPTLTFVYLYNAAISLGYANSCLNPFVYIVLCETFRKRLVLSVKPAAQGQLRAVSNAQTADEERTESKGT
Chain of Glyceraldehyde-3-phosphate dehydrogenase (P04406 whole entry): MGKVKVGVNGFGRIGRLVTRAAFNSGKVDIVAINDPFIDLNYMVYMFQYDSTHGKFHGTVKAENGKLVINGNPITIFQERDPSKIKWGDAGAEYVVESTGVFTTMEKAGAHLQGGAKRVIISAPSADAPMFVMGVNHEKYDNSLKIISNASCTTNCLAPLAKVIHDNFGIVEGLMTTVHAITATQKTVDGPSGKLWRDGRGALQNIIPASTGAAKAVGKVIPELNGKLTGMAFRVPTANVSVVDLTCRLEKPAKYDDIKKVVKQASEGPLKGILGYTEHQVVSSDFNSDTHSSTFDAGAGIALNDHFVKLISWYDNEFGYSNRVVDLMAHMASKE

SMILES: C/C(=N\NC(=O)c1cccc([N+](=O)[O-])c1)c1ccccn1
EC50 [1]: 10.2 µM (inactive)
EC50 [2]: 6.12 µM (not active)
EC50 [3]: > 8 µM (not active)

SMILES: Cc1ccc(C)c(S(=O)(=O)c2nnn3c2[nH]c(=O)c2sccc23)c1
IC50 [4]: 5.17 µM (active)

IC50 [5]: 17 µM (inactive)
IC50 [6]: 10 µM (active)
SMILES: Cc1ccc(-n2ncc(Cl)c(Oc3ccc(F)cc3C)c2=O)cc1

IC50 [7]: > 100 µM (not active)
IC50 [8]: 2.42 µM (active)
IC50 [9]: 2.51 µM (active)
IC50 [10]: 17.8 µM (active)
IC50 [11]: 15.5 µM (active)
IC50 [12]: > 100 µM (not active)
SMILES: O=C(O)c1ccc2c(c1)C1C=CCC1C(C(=O)O)N2 (centres undefined)

EC50 [13]: > 85.3 µM (inactive)
EC50 [14]: > 85.3 µM (inactive)
SMILES: COc1ccc(C(=O)N/N=C/c2ccc3cccc(OCc4ccccc4)c3n2)cc1
